Data taken from ChEMBL document CHEMBL1201862, “PubChem BioAssay data set” (2004).
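The compound was tested at five concentrations on cells cultured in 96-well plates, with a 48-hour exposure period. GI50 is the concentration that inhibits growth by half.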 Activity calls are given as the source filed them. Cut-off read from the data, not from the text of the source: active = GI50 up to about 1.1 µM and inactive = higher.

Assays:
Test in all cases: NCI tumour cell line growth inhibition, 48 h
[1] = tested on: 786-0
[2] = tested on: A498
[3] = tested on: A549
[4] = tested on: ACHN
[5] = tested on: BT-549
[6] = tested on: CAKI-1
[7] = tested on: CCRF-CEM
[8] = tested on: COLO 205
[9] = tested on: DLD-1
[10] = tested on: DMS-114
[11] = tested on: DMS-273
[12] = tested on: DU-145
[13] = tested on: EKVX
[14] = tested on: HCC 2998
[15] = tested on: HCT-116
[16] = tested on: HCT-15
[17] = tested on: HL-60
[18] = tested on: HOP-18
[19] = tested on: HOP-62
[20] = tested on: HT-29
[21] = tested on: Hs-578T
[22] = tested on: IGROV-1
[23] = tested on: K562
[24] = tested on: KM-20L2
[25] = tested on: KM12
[26] = tested on: LOX IMVI
[27] = tested on: LXFL 529
[28] = tested on: M14
[29] = tested on: M19-MEL
[30] = tested on: MCF7
[31] = tested on: MDA-MB-231
[32] = tested on: MDA-MB-435
[33] = tested on: MDA-N
[34] = tested on: MOLT-4
[35] = tested on: Malme-3M
[36] = tested on: NCI-H226
[37] = tested on: NCI-H23
[38] = tested on: NCI-H460
[39] = tested on: NCI-H522
[40] = tested on: NCI/ADR-RES
[41] = tested on: OVCAR-3
[42] = tested on: OVCAR-4
[43] = tested on: OVCAR-5
[44] = tested on: OVCAR-8
[45] = tested on: PC-3
[46] = tested on: RPMI-8226
[47] = tested on: RXF 393
[48] = tested on: SF-268
[49] = tested on: SF-295
[50] = tested on: SF-539
[51] = tested on: SK-MEL-28
[52] = tested on: SK-MEL-2
[53] = tested on: SK-MEL-5
[54] = tested on: SK-OV-3
[55] = tested on: SN12C
[56] = tested on: SNB-19
[57] = tested on: SNB-75
[58] = tested on: SNB-78
[59] = tested on: SR
[60] = tested on: SW-620
[61] = tested on: T47D
[62] = tested on: TK-10
[63] = tested on: U-251
[64] = tested on: UACC-257
[65] = tested on: UACC-62
[66] = tested on: UO-31
[67] = tested on: XF498
[68] = tested on: HOP-92
[69] = tested on: RXF 631

CN(C)c1n/c(=N/Cc2ccco2)ss1
GI50 [1]: 3.65 µM (inactive) | GI50 [2]: > 78 µM (inactive) | GI50 [3]: 15.6 µM (inactive) | GI50 [4]: 25.9 µM (inactive) | GI50 [5]: 18.6 µM (inactive) | GI50 [6]: 30.5 µM (inactive) | GI50 [7]: 1.43 µM (inactive) | GI50 [8]: 2.06 µM (inactive) | GI50 [9]: 14.2 µM (inactive) | GI50 [10]: 3.33 µM (inactive) | GI50 [11]: 4.53 µM (inactive) | GI50 [12]: > 66.5 µM (inactive) | GI50 [13]: 37.9 µM (inactive) | GI50 [14]: 52.8 µM (inactive) | GI50 [15]: 8.97 µM (inactive) | GI50 [16]: 21.3 µM | GI50 [17]: 1.59 µM (inactive) | GI50 [18]: > 100 µM (inactive) | GI50 [19]: 24.9 µM (inactive) | GI50 [20]: 2.44 µM (inactive) | GI50 [21]: 29.6 µM (inactive) | GI50 [22]: > 54.8 µM (inactive) | GI50 [23]: 3.77 µM (inactive) | GI50 [24]: > 100 µM (inactive) | GI50 [25]: 3.72 µM (inactive) | GI50 [26]: 18.5 µM (inactive) | GI50 [27]: 38.9 µM (inactive) | GI50 [28]: 21 µM (inactive) | GI50 [29]: 5.05 µM (inactive) | GI50 [30]: 16.4 µM (inactive) | GI50 [31]: 15.8 µM (inactive) | GI50 [32]: 20.5 µM (inactive) | GI50 [33]: 16.6 µM (inactive) | GI50 [34]: 5.73 µM (inactive) | GI50 [35]: 18.7 µM (inactive) | GI50 [36]: 62.2 µM (inactive) | GI50 [37]: 25.6 µM (inactive) | GI50 [38]: 10.9 µM (inactive) | GI50 [39]: 0.307 µM (active) | GI50 [40]: 75.3 µM (inactive) | GI50 [41]: 8.97 µM (inactive) | GI50 [42]: 30.3 µM (inactive) | GI50 [43]: > 40.5 µM (inactive) | GI50 [44]: 31.7 µM (inactive) | GI50 [45]: 15.5 µM (inactive) | GI50 [46]: 1.79 µM (inactive) | GI50 [47]: 7.98 µM (inactive) | GI50 [48]: 11.7 µM (inactive) | GI50 [49]: 37.2 µM (inactive) | GI50 [50]: 13 µM (inactive) | GI50 [51]: 11.6 µM (inactive) | GI50 [52]: > 21.1 µM (inactive) | GI50 [53]: 2.76 µM (inactive) | GI50 [54]: 55.6 µM (inactive) | GI50 [55]: 31.6 µM (inactive) | GI50 [56]: 60.5 µM (inactive) | GI50 [57]: 20.5 µM (inactive) | GI50 [58]: > 58.9 µM (inactive) | GI50 [59]: 0.521 µM (active) | GI50 [60]: 26.2 µM (inactive) | GI50 [61]: 14.3 µM (inactive) | GI50 [62]: 40 µM (inactive) | GI50 [63]: 31.5 µM (inactive) | GI50 [64]: 46.5 µM (inactive) | GI50 [65]: 5.32 µM (inactive) | GI50 [66]: 28.8 µM (inactive) | GI50 [67]: > 100 µM (inactive)

O=C(NCCNCCO)c1cccc2ccc(-c3ccccc3)nc12
GI50 [1]: 6.87 µM (inactive) | GI50 [2]: 1.8 µM (inactive) | GI50 [3]: 2.93 µM (inactive) | GI50 [4]: 2.26 µM (inactive) | GI50 [6]: 3.38 µM (inactive) | GI50 [7]: 3.4 µM (inactive) | GI50 [8]: 3.1 µM (inactive) | GI50 [9]: 3.41 µM (inactive) | GI50 [10]: 7.52 µM (inactive) | GI50 [11]: 3.86 µM (inactive) | GI50 [13]: 5.94 µM (inactive) | GI50 [14]: 5.01 µM (inactive) | GI50 [15]: 2.73 µM (inactive) | GI50 [16]: 3.8 µM | GI50 [17]: 3.17 µM (inactive) | GI50 [18]: 19 µM (inactive) | GI50 [19]: 10.3 µM (inactive) | GI50 [68]: 3.18 µM (inactive) | GI50 [20]: 4.13 µM (inactive) | GI50 [22]: 3.12 µM (inactive) | GI50 [23]: 5.97 µM (inactive) | GI50 [25]: 5.68 µM (inactive) | GI50 [26]: 2.7 µM (inactive) | GI50 [28]: 5.28 µM (inactive) | GI50 [29]: 4.89 µM (inactive) | GI50 [34]: 1.54 µM (inactive) | GI50 [36]: 4.46 µM (inactive) | GI50 [37]: 4.68 µM (inactive) | GI50 [38]: 2.02 µM (inactive) | GI50 [41]: 7.66 µM (inactive) | GI50 [42]: 6.5 µM (inactive) | GI50 [43]: 4.8 µM (inactive) | GI50 [44]: 4.42 µM (inactive) | GI50 [47]: 3.98 µM (inactive) | GI50 [69]: 1.83 µM (inactive) | GI50 [48]: 6.53 µM (inactive) | GI50 [49]: 5.58 µM (inactive) | GI50 [50]: 3.63 µM (inactive) | GI50 [51]: 10.4 µM (inactive) | GI50 [52]: 7.74 µM (inactive) | GI50 [53]: 3.59 µM (inactive) | GI50 [54]: 8.13 µM (inactive) | GI50 [55]: 3.97 µM (inactive) | GI50 [56]: 6.49 µM (inactive) | GI50 [57]: 10.4 µM (inactive) | GI50 [58]: 9.25 µM (inactive) | GI50 [60]: 3.15 µM (inactive) | GI50 [62]: 1.44 µM (inactive) | GI50 [63]: 4.82 µM (inactive) | GI50 [64]: 3.47 µM (inactive) | GI50 [65]: 4.54 µM (inactive) | GI50 [66]: 3.44 µM (inactive)
